A short description of data set [1]: Clearance after oral and iv dosing in dogs. The note with it: dog, in vivo, read-out: CI. Format: ADME, organism-based, Canis lupus familiaris.
The target in data set [2] is Integrin alpha-V/beta-3 (Homo sapiens, UniProt P05106+P06756). As to the kind of experiment: Inhibition of binding to human integrin receptor alpha V beta3. The format is protein-complex assay.
Data set [3] in a line: Bioavailability in dog. Format: ADME, organism-based, Canis lupus familiaris. The note with it: in vivo.

Experimental findings from ChEMBL document CHEMBL1134996, “Non-peptide alpha(v)beta(3) antagonists. Part 5: identification of potent RGD mimetics incorporating 2-aryl beta-amino acids as aspartic acid replacements” (Bioorg Med Chem Lett, 2002) are described below.

Integrin alpha-V/beta-3, sequence (P05106 27-788 limits assumed): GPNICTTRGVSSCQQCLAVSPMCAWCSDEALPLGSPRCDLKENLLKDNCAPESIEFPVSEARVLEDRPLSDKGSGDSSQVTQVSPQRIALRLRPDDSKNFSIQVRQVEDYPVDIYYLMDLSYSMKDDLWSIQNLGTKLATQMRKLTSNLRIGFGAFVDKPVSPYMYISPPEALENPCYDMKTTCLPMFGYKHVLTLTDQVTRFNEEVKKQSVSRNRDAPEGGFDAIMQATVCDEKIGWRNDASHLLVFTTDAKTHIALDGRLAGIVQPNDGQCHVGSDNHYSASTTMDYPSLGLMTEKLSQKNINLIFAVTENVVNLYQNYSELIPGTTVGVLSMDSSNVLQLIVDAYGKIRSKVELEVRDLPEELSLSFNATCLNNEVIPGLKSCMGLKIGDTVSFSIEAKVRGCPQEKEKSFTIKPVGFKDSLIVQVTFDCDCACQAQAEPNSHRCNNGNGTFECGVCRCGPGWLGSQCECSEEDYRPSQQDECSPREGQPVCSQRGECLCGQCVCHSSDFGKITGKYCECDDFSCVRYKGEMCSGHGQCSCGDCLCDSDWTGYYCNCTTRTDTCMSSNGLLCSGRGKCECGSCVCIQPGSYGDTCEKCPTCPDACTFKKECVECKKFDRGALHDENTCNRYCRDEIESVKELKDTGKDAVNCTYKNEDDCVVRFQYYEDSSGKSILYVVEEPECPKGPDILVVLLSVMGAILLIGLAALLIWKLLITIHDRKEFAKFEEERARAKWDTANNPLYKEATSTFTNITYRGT
Integrin alpha-V/beta-3, sequence (P06756 31-889 limits assumed): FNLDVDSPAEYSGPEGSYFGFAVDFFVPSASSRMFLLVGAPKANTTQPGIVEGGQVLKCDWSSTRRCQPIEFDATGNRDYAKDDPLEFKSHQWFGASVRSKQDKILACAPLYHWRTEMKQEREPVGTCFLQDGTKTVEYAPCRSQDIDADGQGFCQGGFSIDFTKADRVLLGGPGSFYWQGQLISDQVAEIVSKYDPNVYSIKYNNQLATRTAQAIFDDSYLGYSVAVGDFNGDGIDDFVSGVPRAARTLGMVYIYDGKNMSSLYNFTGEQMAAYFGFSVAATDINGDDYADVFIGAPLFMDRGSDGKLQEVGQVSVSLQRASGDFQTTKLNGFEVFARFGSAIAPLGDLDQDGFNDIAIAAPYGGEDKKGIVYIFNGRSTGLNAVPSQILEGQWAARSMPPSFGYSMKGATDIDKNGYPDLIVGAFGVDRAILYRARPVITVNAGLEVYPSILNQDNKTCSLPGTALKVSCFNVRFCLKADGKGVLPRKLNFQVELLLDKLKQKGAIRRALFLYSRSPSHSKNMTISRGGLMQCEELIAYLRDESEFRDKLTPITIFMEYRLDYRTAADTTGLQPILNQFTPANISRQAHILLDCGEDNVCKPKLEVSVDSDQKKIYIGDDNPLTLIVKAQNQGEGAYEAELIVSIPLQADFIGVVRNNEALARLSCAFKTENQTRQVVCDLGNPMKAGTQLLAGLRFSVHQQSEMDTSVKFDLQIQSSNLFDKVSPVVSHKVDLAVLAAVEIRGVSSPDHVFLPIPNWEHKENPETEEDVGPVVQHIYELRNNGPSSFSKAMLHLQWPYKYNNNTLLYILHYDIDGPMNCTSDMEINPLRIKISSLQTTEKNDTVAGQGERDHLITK
Integrin alpha-V/beta-3, sequence (P06756 891-1048 limits assumed): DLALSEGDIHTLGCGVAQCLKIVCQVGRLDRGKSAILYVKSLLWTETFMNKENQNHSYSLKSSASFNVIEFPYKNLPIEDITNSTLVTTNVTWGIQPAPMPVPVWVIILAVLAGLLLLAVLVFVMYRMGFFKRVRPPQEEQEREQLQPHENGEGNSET

Take `O=C(O)C[C@H](NC(=O)CCCCc1ccc2c(n1)NCCC2)c1ccc2c(c1)OCC2`: the clearance in data set [1] is 2 mL/min/kg. In data set [2], `O=C(CCCCc1ccc2c(n1)NCCC2)NCC(C(=O)O)c1cccc(F)c1` (stereo not given) yielded a concentration for half-maximal inhibition (IC50) of 10.9 nM. The compound `O=C(CCCCc1nc2c(cc1C1CC1)CCCN2)NCC(C(=O)O)c1ccc2c(c1)OCC2` (stereo not given) came in with an IC50 in data set [2] of 0.29 nM. In addition, the clearance in data set [1] stood at 13.7 mL/min/kg. For the same compound, the bioavailability in data set [3] came to 40%.

In data set [2], `O=C(O)C[C@H](NC(=O)CCCCc1ccc2c(n1)NCCC2)c1ccccc1` had an IC50 of 84 nM. On to `O=C(CCCCc1ccc2c(n1)NCCC2)NCC(C(=O)O)c1cnc2ccccc2c1` (stereo not given), for which, in data set [2], the IC50 is 0.82 nM. `O=C(CCCCc1ccc2c(n1)NCCC2)NCC(C(=O)O)c1ccc2c(c1)OCC2` (stereo not given): the IC50 in data set [2] was 1.01 nM. Besides, in data set [1], the clearance was 6.6 mL/min/kg. For the same compound, the bioavailability in data set [3] amounted to 47%.

Regarding `O=C(O)C[C@H](NC(=O)CCCCc1ccc2c(n1)NCCC2)c1cnc2ccccc2c1`, the half-maximal inhibitory concentration (IC50) in data set [2] worked out at 1.07 nM. Compound `CN(CC(C(=O)O)c1ccc2c(c1)OCC2)C(=O)CCCCc1nc2c(cc1C1CC1)CCCN2` (stereo not given) yielded an IC50 in data set [2] of 0.49 nM. `O=C(CCC1CCc2cc3c(nc2C1)NCCC3)NCC(C(=O)O)c1ccc2c(c1)OCC2` (stereo not given): the IC50 in data set [2] worked out at 0.72 nM. Moreover, the clearance in data set [1] came to 18.9 mL/min/kg. This compound also yielded a bioavailability in data set [3] of 1.1%. On to `O=C(CCCCc1ccc2c(n1)NCCC2)NCC(C(=O)O)c1ccccc1` (stereo not given), for which the IC50 in data set [2] turned out to be 57.4 nM. `CN(CC(C(=O)O)c1ccc2c(c1)OCC2)C(=O)CCCCc1ccc2c(n1)NCCC2` (stereo not given) came in with an IC50 in data set [2] of 0.74 nM. For `CN(CC(C(=O)O)c1ccc2c(c1)OCC2)C(=O)CCC1CCc2cc3c(nc2C1)NCCC3` (stereo not given), the half-inhibitory concentration (IC50) in data set [2] is 0.35 nM. For the same compound, the clearance in data set [1] is 10.3 mL/min/kg. For the same compound, the bioavailability in data set [3] is 18%.

The IC50 is the concentration needed to halve the response being measured. Low values mean greater potency, high ones weaker potency. By bioavailability is commonly meant dose-corrected exposure relative to a reference, in per cent.
